Measured values reported in patent US7951592B2, “Compositions and methods for inducing cell dedifferentiation” (The Scripps Research Institute, priority 2003, dated 2011).

Columns and labels:
C2C12 myoblasts cells = details: at the effective concentration (0.5-5 μM)
Method: After four days of treatment with reversine, the compound was removed and cells were then grown in osteogenic differentiation medium (ODM) or adipogenic differentiation medium (ADM).

C2C12 myoblast cells = details: day four of compound treatment

In the case of `c1nc2nc(Nc3ccc(N4CCOCC4)cc3)nc(NC3CCCCC3)c2[nH]1` [Compound A, 2-(4-Morpholinoanilino)-6-cyclohexylamino-purine], the cell death (C2C12 myoblasts cells) is reported as “no significant cell death”, the myotube formation (C2C12 myoblast cells; 5 μM) is reported as “completely inhibited” and the “myogenic specific markers such as MyoD and myosin” value (C2C12 myoblast cells) is reported as “began to disappear”.
